Active and inactive are the calls of the source.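 The calls were made as follows: active = compounds whose mean EC50, the dose giving half the maximal reporter activation, is at or below a set limit; inactive = the rest.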
The molecules below were run against CHO-CHOP luciferase reporter, UPR activation, luminescence (assay: CHOP reporter induction, apoptotic UPR branch – CHO-CHOP cells, luciferase luminescence, confirmation (AID 489024);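 also: compounds added alone to reporter cells with no tunicamycin stress co-treatment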).
With COc1cc(NC(=O)c2cncc(-c3ccc(C#N)cc3)c2)cc(C(=O)Nc2cccc(C(F)(F)F)c2)c1 the EC50 was “inactive”.
For CCCCCCCCCn1c2c(c(=N)c3c1CCC3)CCC2, the EC50 was > 80 µM (inactive).
In the case of O=C(CSc1ccc2ccccc2c1)NCCc1ccc(O)c(O)c1, the EC50 is reported as 8.44 µM.
With Cc1c(C#N)c(NC(=O)CCl)n(Cc2cccs2)c1C the EC50 was > 80 µM (inactive).
Cc1ccc(C(=O)NC(C#N)=C(Cl)Cl)cc1 was tested, and the EC50 was > 80 µM (inactive).
With Cc1cc(SCC(=O)N/N=C/c2ccc(O)c(O)c2)nc2ccccc12 the EC50 was 18.3 µM.
In the case of O=C(Nc1ccc(S(=O)(=O)N2CCCC2)cc1)c1ccc([N+](=O)[O-])o1, the EC50 is reported as 0.81 µM.
In the case of Cc1cccc(OCCN2CSC(=S)N(C)C2)c1, the EC50 is reported as > 80 µM (inactive).
In the case of CCOc1cc(NC(=O)CCl)c(OCC)cc1NC(=O)CCl, the EC50 is reported as “inactive”.
For CCOC(=O)c1ccc(N2C(=O)C=CC2=O)cc1, the EC50 was > 80 µM (inactive).
C/C(=N\NC(=O)c1ccc(Cl)cc1)c1ccccn1 gave an EC50 of 8.06 µM.
With Nc1nnnn1/N=C/C(Br)=C/c1ccccc1 the EC50 was 2.22 µM.
Molecule O=C(/C=C/c1ccc(O)c(O)c1)OCCc1ccccc1 has an EC50 of 0.89 µM.
Molecule CCOC(=O)c1c(C)oc2c1c(C(c1cccnc1)N1CCOCC1)c(O)c1ccccc12 (stereo unspecified) has an EC50 of 16.8 µM.
COc1ccc(N2C(=O)/C(=C/c3cccs3)C(=O)NC2=S)cc1 gave an EC50 of 9.09 µM.
S=c1[nH]nc(-c2cc(-c3ccccc3)n[nH]2)n1/N=C/C(Br)=C/c1ccccc1 gave an EC50 of 7.79 µM.
COc1ccc(CCn2c(C)cc(C(=O)CCl)c2C)cc1OC was tested, and the EC50 was > 80 µM (inactive).
COCc1cc(C)nc(OCC(=O)N/N=C/c2ccc(-c3cc([N+](=O)[O-])ccc3Cl)o2)c1C#N was tested, and the EC50 was 14.3 µM.
COc1ccc(C(=O)Sc2ccc(Cl)cc2)cc1OC showed an EC50 of 9.38 µM.
For O=C(Nc1nc(-c2ccccn2)cs1)c1cc(Cl)ccc1[N+](=O)[O-], the EC50 was 6.29 µM.
Cc1cccc(C)c1NC(=O)C(Cl)C(=O)c1ccccc1 (stereo unspecified) showed an EC50 of 19.3 µM.
For N=c1c(-c2nc3ccccc3[nH]2)cc(C(=O)c2ccco2)nn1-c1ccccc1, the EC50 was 15.2 µM.
COc1cc(/C=C(/C(=O)c2cccs2)c2nc3ccccc3[nH]2)cc(OC)c1O gave an EC50 of 9.71 µM.
CCC(=O)Nc1ccc(C(=O)Cn2ncc(Cl)c(Cl)c2=O)cc1 showed an EC50 of 13.7 µM.
With Cc1cc(C)cc(N2C(=O)NC(=O)/C(=C\c3cccn3-c3ccccc3)C2=O)c1 the EC50 was 13.9 µM.
O=C(Cn1cc(/C=C\[N+](=O)[O-])c2ccccc21)Nc1ccccc1 was tested, and the EC50 was 7.5 µM.
For O=C(CSC(=S)N1CCCC1)c1cc(Br)cc(Br)c1O, the EC50 was “inactive”.
With CN(/N=C\c1ccc(O)c(O)c1)c1nc(-c2ccccc2)cc(-c2ccccc2)n1 the EC50 was 1.32 µM.
For Cn1c(/C=C/c2ccc([N+](=O)[O-])o2)nc2ccccc2c1=O, the EC50 was 6.93 µM.
With CCOc1cccc(C(=O)Nc2cccc(-c3nnc(-c4ccc(C)cc4)o3)c2)c1 the EC50 was > 80 µM (inactive).
In the case of Oc1ccc(/C=N/N2CCN(C3c4ccccc4-c4ccccc43)CC2)cc1O, the EC50 is reported as “inactive”.
In the case of COC(=O)[C@@H]1[C@@H](C#N)C2(c3ccccc3-c3ccccc32)N(c2ccc(Cl)cc2)N1C#N, the EC50 is reported as 13 µM.
Cc1cc(C(=O)CCl)c(C)n1CCc1ccccc1 showed an EC50 of 7.91 µM.
For Cc1ccc(N2CCN(c3ccc(NCc4nc5ccccc5n4C)cc3)CC2)cc1, the EC50 was “inactive”.
For CCOc1cc(/C=C2/C(=N)N3C=CSC3=NC2=O)ccc1OCCCOc1ccccc1C, the EC50 was “inactive”.
In the case of S=C(Nc1ccccc1)c1ccccn1, the EC50 is reported as 9.11 µM.
Oc1c(CN2CCCCC2)cc(Br)c2cccnc12 gave an EC50 of 10.6 µM.
For Oc1cc(-c2ccncc2)cc2cccnc12, the EC50 was > 80 µM (inactive).
Work on O=C(Nc1cccc(-c2nc3cccnc3s2)c1)C1c2ccccc2Oc2ccccc21 yielded an EC50 of 6.89 µM.
For O=[N+]([O-])c1ccccc1S(=O)(=O)Nc1cccc2cccnc12, the EC50 was 7.67 µM.
O=C(CSc1ccccn1)Nc1nonc1[N+](=O)[O-] gave an EC50 of 19.1 µM.
COc1ccc(O)c(/C=N/Nc2nc(Nc3ccccc3)nc(-n3nc(C)cc3C)n2)c1 was tested, and the EC50 was 5.05 µM.
COc1ccc(C(C[N+](=O)[O-])n2nc(C)cc2C)cc1 (stereo unspecified) showed an EC50 of 9.15 µM.
For O=[N+]([O-])/C=C\c1ccc(N2CCOCC2)cc1, the EC50 was 17.5 µM.
In the case of COc1ccc(C2OC34CCCCC3C(C#N)(C#N)C2(C#N)C(=N)O4)cc1 (stereo unspecified), the EC50 is reported as > 80 µM (inactive).
Cn1nnnc1Sc1ncnc2scc(-c3ccc([N+](=O)[O-])cc3)c12 showed an EC50 of 12.3 µM.
With COC(=O)c1c(NC(=O)CC2Nc3ccccc3NC2=O)sc(C)c1C (stereo unspecified) the EC50 was “inactive”.
Work on CC(C)c1ccc(N2C(=O)CC(Sc3nc4ccccc4o3)C2=O)cc1 (stereo unspecified) yielded an EC50 of 15.9 µM.
Molecule CC1(C)C=Cc2c(c3c(c4c(=O)c(-c5ccc(O)cc5)coc24)OC(C)(C)CC3)O1 has an EC50 of 14.5 µM.
In the case of CCOC(=O)/C(=C\c1cccc(O)c1)c1nc2sc(C)c(C)c2c(=O)[nH]1, the EC50 is reported as 13 µM.
S=C1SCN(CC2CC2)CN1CC1CC1 was tested, and the EC50 was “inactive”.
CCOC(=O)c1c2ccc(OCC(=O)N/N=C/c3ccc(C)cc3)cc2n2ccccc12 was tested, and the EC50 was > 80 µM (inactive).
Cc1ccc(S(=O)(=O)Nc2cccc3cccnc23)c([N+](=O)[O-])c1 was tested, and the EC50 was 7.17 µM.
In the case of O=C(Oc1c(CN2CCOCC2)cc(Cl)c2cccnc12)c1ccc(F)cc1, the EC50 is reported as “inactive”.
For Cn1c(=O)c2c(SCC(=O)Nc3ccccc3F)nc(-c3ccccc3F)nc2n(C)c1=O, the EC50 was 12.6 µM.
Cc1ccc(F)cc1N=Cc1c(O)c2ccccc2oc1=O showed an EC50 of 6.17 µM.
O=C(Nc1ccc(-c2nc3cc(NC(=O)c4cccs4)ccc3o2)cc1)c1cccs1 gave an EC50 of 6 µM.
O=C(Nc1ccc(S(=O)(=O)N2CCOCC2)cc1)c1ccc([N+](=O)[O-])o1 gave an EC50 of 0.98 µM.
For C[C@@H](NC(=O)c1coc(=O)c(Br)c1)c1ccccc1, the EC50 was 9.34 µM.
For COc1ccccc1-c1cc(C(F)(F)F)nc(S(=O)(=O)CCCC(=O)NCc2ccc(F)cc2)n1, the EC50 was 7.58 µM.
For CCOC(=O)C(=Cc1ccc(-n2ccnc2)cc1)C(=O)OCC, the EC50 was 9.57 µM.
COc1ccc(NC(=O)c2sc3nc(N4CCOCC4)c4c(c3c2N)CC(C)(C)OC4)c(OC)c1 was tested, and the EC50 was > 80 µM (inactive).
With CS(=O)(=O)c1nc(-c2ccccc2)cc(-c2ccccc2)c1C#N the EC50 was 15.3 µM.
For O=C(Oc1ccccc1/C=C\C(=O)c1cc2ccccc2o1)c1ccccc1, the EC50 was 12.9 µM.
O=C(N/N=C(\c1ccccc1)c1ccccn1)c1cccc([N+](=O)[O-])c1 showed an EC50 of 7.44 µM.
With CC1=C/C(=N\OC(=O)/C=C/c2ccccc2)C(C)=CC1=O the EC50 was > 80 µM (inactive).
In the case of CCOC(=O)c1ccc(-c2ccc(/C=N/NC(=O)CN(c3cccc(C)c3)S(C)(=O)=O)o2)cc1, the EC50 is reported as 20 µM.
In the case of CCOC(=O)C(=Cc1ccc(F)cc1)C(=O)OCC, the EC50 is reported as > 80 µM (inactive).
In the case of COc1ccc(N2CCN(Cc3cc(=O)oc4cc(-c5ccccc5)c(O)cc34)CC2)cc1, the EC50 is reported as > 80 µM (inactive).
For CCCCC(CC)CN=C(N)NC(N)=NCCCCCCN=C(N)NC(N)=NCC(CC)CCCC (stereo unspecified), the EC50 was > 80 µM (inactive).
Molecule CCOC(=O)CSc1cccc2cccnc12 has an EC50 of 11.4 µM.
Work on O=C(Nc1ccc2oc(-c3ccncc3)nc2c1)c1ccc([N+](=O)[O-])o1 yielded an EC50 of 0.82 µM.
COC(=O)c1ccc(COc2ccccc2/C=C(\C#N)C(=O)Nc2c(C)cccc2C)cc1 was tested, and the EC50 was 11.8 µM.
For Cc1noc2ncnc(Sc3ccc(Br)cc3)c12, the EC50 was 9.31 µM.
O=C(Nc1nccs1)c1cccc(N2C(=O)c3cccc4c([N+](=O)[O-])ccc(c34)C2=O)c1 showed an EC50 of 11.5 µM.
CC(C)[C@H](NC(=O)OC(C)(C)C)c1nnc(S(=O)(=O)Cc2c(F)cccc2Cl)o1 was tested, and the EC50 was > 80 µM (inactive).
For C/C(=N\NC(=O)c1ccc(Cl)c(Cl)c1)c1ccccn1, the EC50 was 3.26 µM.
With CSc1nnc(NC(=O)c2nc(S(=O)(=O)Cc3cccc(C)c3)ncc2Cl)s1 the EC50 was > 80 µM (inactive).
In the case of Cc1cc(C)c2c(c1)/C(=c1/sc3n(c1=O)CN(c1ccccc1)CN=3)C(=O)N2, the EC50 is reported as 11.6 µM.
With CC(C)(C)N1CSC(=S)N(Cc2ccccc2)C1 the EC50 was 10.2 µM.
With CCOc1ccc(NC(=S)NC(=O)/C=C/c2ccc(OC)c(OC)c2)c([N+](=O)[O-])c1 the EC50 was > 80 µM (inactive).
With Oc1ccc(CN2CCN(c3ccccc3)CC2)c2cccnc12 the EC50 was “inactive”.
In the case of Oc1[nH]c2ccccc2c1N=NC(=S)N1CCOCC1, the EC50 is reported as 7.74 µM.
CCOC(=O)Cc1csc(/N=C/c2c(O)n(-c3ccc(C)c(C)c3)c(=O)c3ccccc23)n1 showed an EC50 of 10.7 µM.
Molecule CCOC(=O)C1CCN(Cc2ccc(O)c3ncccc23)CC1 has an EC50 of 2.74 µM.
With Cc1sc(NC(=O)c2cc(-c3ccc(Cl)cc3)nc3ccccc23)c(C(N)=O)c1C the EC50 was “inactive”.
CS(=O)(=O)Oc1ccc2c(c1)O/C(=C\C=C\c1ccccc1)C2=O was tested, and the EC50 was “inactive”.
O=C1NC(=O)N(Cc2ccccc2Cl)C(=O)/C1=C/c1cccs1 showed an EC50 of 15.9 µM.
Work on CCCCCCCCCCn1c2c(c(=N)c3c1CCC3)CCC2 yielded an EC50 of 14.1 µM.
In the case of O=C(Nc1nc(-c2ccc(F)c(F)c2)cs1)Nc1ccc(F)cc1F, the EC50 is reported as > 80 µM (inactive).
In the case of CN1CCN(Cc2cc(COCc3ccccc3)c3cccnc3c2O)CC1, the EC50 is reported as 12.8 µM.
For Cc1cc(O)c(-c2cc(O)c(C)cc2O)cc1O, the EC50 was > 80 µM (inactive).
CC(C)(C)C(=O)N1CCN(c2ccc(NC(=O)c3ccc([N+](=O)[O-])o3)cc2)CC1 was tested, and the EC50 was 0.75 µM.
For CCc1ccc(N2C(=O)NC(=O)/C(=C\C=C\c3ccco3)C2=O)cc1, the EC50 was 7.33 µM.
Work on COc1cc(/C=C(/C#N)c2nc3ccccc3[nH]2)ccc1OCC(=O)Nc1ccccc1C yielded an EC50 of 3.65 µM.
Molecule Oc1c(Cl)cc(CN2CCOCC2)c2cccnc12 has an EC50 of 5.93 µM.
With Cc1nn(Cc2c(Cl)cccc2Cl)c(C)c1NC(=O)c1cn(-c2ccccc2)nc1-c1ccccc1 the EC50 was 7.37 µM.
In the case of O=C(NCc1cccnc1)/C(=C/c1ccc(-c2cccc(Cl)c2)o1)S(=O)(=O)c1ccccc1, the EC50 is reported as 10.4 µM.
For CCc1nn(-c2cc(Oc3cccc4ccccc34)nc(-c3ccccc3)n2)c(N)c1C#N, the EC50 was “inactive”.
In the case of CCc1cc(C(=O)c2ccc(C)cc2)c(NC(=O)CCl)s1, the EC50 is reported as 13.5 µM.
O=C1Nc2ccc(Br)cc2/C1=N/N=C/C1=C(N2CCOCC2)C(=C\c2ccccc2)/CC1 was tested, and the EC50 was > 80 µM (inactive).
Molecule CCN(CC)c1ccc(C=C2C(=O)NC(=S)NC2=O)cc1 has an EC50 of 11.9 µM.
O=c1[nH]c(-c2ccc(-c3cccc(Cl)c3)o2)nc2ccccc12 gave an EC50 of 12.9 µM.
Molecule CCc1cccc2sc(N3CCN(C(=O)c4ccc([N+](=O)[O-])o4)CC3)nc12 has an EC50 of 10.5 µM.
COc1ccc(-c2nc(-c3ccccc3)nc(Cl)c2C#N)cc1 was tested, and the EC50 was 13.5 µM.
COc1cc(/C=C(/C#N)c2nc3ccccc3[nH]2)ccc1OCC(=O)Nc1ccccc1C(C)C was tested, and the EC50 was 8.27 µM.

Source: PubChem BioAssay AID489024 (Sanford-Burnham Center for Chemical Genomics, 2010)
